Read-outs that look alike come from different tables or passages of the source.
Test system: GNS166 cells

## C#CCN(Cc1cc2cc(OCCCN3CCCCC3)ccc2n1S(=O)(=O)c1ccccc1)C(=O)CCCCCCC(=O)NO [DDI]
  TMEM156 log2FoldChange: 3.7131
  TMOD1 log2FoldChange: 2.144
  TNFSF18 log2FoldChange: 2.976
  TNNI3 log2FoldChange: 7.061
  TRPC4 log2FoldChange: 3.104
  TTYH1 log2FoldChange: 4.78
  TUBA3C log2FoldChange: 6.251
  TUSC3 log2FoldChange: 3.3304
  UNC5B log2FoldChange: 3.5878
  USH1G log2FoldChange: 7.012
  VAV3 log2FoldChange: 2.016
  VGLL2 log2FoldChange: 2.35
  VTCN1 log2FoldChange: 4.133
  VWA1 log2FoldChange: 2.457
  WNT2B log2FoldChange: 2.031
  WNT10B log2FoldChange: 3.628
  WSCD1 log2FoldChange: 2.865
  XYLT1 log2FoldChange: 5.474
  YPEL4 log2FoldChange: 2.644
  ZCCHC12 log2FoldChange: 2.836
  ZDHHC11B log2FoldChange: 2.194
  ZDHHC22 log2FoldChange: 3.089
  ZFP92 log2FoldChange: 2.85
  ZMYND10 log2FoldChange: 2.335
  ZNF208 log2FoldChange: 3.37
Gene ALOX15B
  Direction: Up
Gene AMBN
  Direction: Up
Gene APELA
  Direction: Up
Gene ATP2B3
  Direction: Up
Gene B3GALT5
  Direction: Up
Gene BCL11B
  Direction: Up
Gene BRS3
  Direction: Up
Gene CA4
  Direction: Up
Gene CA7
  Direction: Up
Gene CAPNS2
  Direction: Up
Gene CCN5
  Direction: Up
Gene CD1D
  Direction: Up
Gene CDC20B
  Direction: Up
Gene CELF4
  Direction: Up
Gene CES1
  Direction: Up
Gene CFAP52
  Direction: Up
Gene CHRNA3
  Direction: Up
Gene CRB1
  Direction: Up
Gene CSAG1
  Direction: Up
Gene CSDC2
  Direction: Up
Gene CUX2
  Direction: Up
Gene CXorf51A
  Direction: Up
Gene DES
  Direction: Up
Gene DGKK
  Direction: Up
Gene EBF2
  Direction: Up
Gene EREG
  Direction: Up
Gene FAM9C
  Direction: Up
Gene FAM166A
  Direction: Up
Gene FER1L5
  Direction: Up
Gene FGD3
  Direction: Up
Gene FRG2
  Direction: Up
Gene FRMD7
  Direction: Up
Gene GAS7
  Direction: Up
Gene GMNC
  Direction: Up
Gene GOLGA8F
  Direction: Up
Gene GREM2
  Direction: Up
Gene GUCY2F
  Direction: Up
Gene HOXC13
  Direction: Up
Gene IBSP
  Direction: Up
Gene IRAG1
  Direction: Up
Gene IRF6
  Direction: Up
Gene KANK3
  Direction: Up
Gene KCNA1
  Direction: Up
Gene KCNH6
  Direction: Up
Gene KCNK5
  Direction: Up
Gene KCNK15
  Direction: Up
Gene KCNN2
  Direction: Up
Gene KCNQ1
  Direction: Up
Gene LHFPL1
  Direction: Up
Gene LHX5
  Direction: Up
Gene LOC102723623
  Direction: Up
Gene LRRC15
  Direction: Up
Gene MAGEA2
  Direction: Up
Gene MAGEA2B
  Direction: Up
Gene MAGEA6
  Direction: Up
Gene MAPK15
  Direction: Up
Gene ME1
  Direction: Up
Gene MEIOSIN
  Direction: Up
Gene MMEL1
  Direction: Up
Gene MMP12
  Direction: Up
Gene MYL2
  Direction: Up
Gene NOS3
  Direction: Up
Gene NTRK1
  Direction: Up
Gene PAGE4
  Direction: Up
Gene PAX2
  Direction: Up
Gene PCDHA1
  Direction: Up
Gene PITX3
  Direction: Up
Gene PLAC1
  Direction: Up
Gene PLK5
  Direction: Up
Gene PLXDC1
  Direction: Up
Gene PNLIPRP3
  Direction: Up
Gene POU3F4
  Direction: Up
Gene PSG6
  Direction: Up
Gene PTPRN
  Direction: Up
Gene RPRML
  Direction: Up
Gene RSPO1
  Direction: Up
Gene SCN4A
  Direction: Up
Gene SCRT1
  Direction: Up
Gene SH2D3A
  Direction: Up
Gene SHH
  Direction: Up
Gene SIDT1
  Direction: Up
Gene SLC4A9
  Direction: Up
Gene SLC11A1
  Direction: Up
Gene SLC18A1
  Direction: Up
Gene SLC19A3
  Direction: Up
Gene SLC35F3
  Direction: Up
Gene SLC36A2
  Direction: Up
Gene STMN4
  Direction: Up
Gene STRC
  Direction: Up
Gene SYT1
  Direction: Up
Gene TAC3
  Direction: Up
Gene TMEM196
  Direction: Up
Gene TNIP3
  Direction: Up
Gene TSPAN18
  Direction: Up
Gene TTC9B
  Direction: Up
Gene UGT3A1
  Direction: Up
Gene UNC5A
  Direction: Up
Gene VWA3B
  Direction: Up
Gene ZBBX
  Direction: Up
Gene ZNF479
  Direction: Up
